From patent US20100298285A1, “Biclycloheteroaryl Compounds as P2x7 Modulators and Uses Thereof” (priority 2006, published 2010)

System: IL-1β release, THP-1 cells
Test: IL-1β release assay in differentiated THP-1 cells stimulated with BzATP (Example 9)
Format: cell-based
Conditions: Homo sapiens; for IC50: THP-1 cells, BzATP 250 uM, four parameter logistic fit; for inhibition at 0.3 µM: 0.3 μM compound ("+" symbols)
Procedure, shortened: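 THP-1 cells differentiated 16 h with 100 ng/mL LPS + 100 ng/mL IFN-γ, re-primed 2 h with fresh LPS 100 ng/mL, pretreated 30 min with compound, then stimulated with BzATP 250 uM final for 45 min. Supernatant IL-1β by ELISA; background-adjusted % inhibition, IC50 from four-parameter logistic fit.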

[1] = differentiated THP-1 cells, 250 uM BzATP, read-out: IL-1β% Inhib. @ 0.3 or 0.1 μM

SMILES	IC50	inhibition at 0.3 µM [1]	inhibition at 0.1 µM (0.1 μM compound ("*" symbols), differentiated THP-1 cells, 250 uM BzATP, read-out: IL-1β% Inhib. @ 0.3 or 0.1 μM)
O=C(Cc1ccc(C(F)(F)F)c(F)c1)Nc1cccc2c1CCN(CC(O)CF)C2 (stereo not drawn) [Compound 3064]	> 1000 nM	0 to 25%	
CC(C)C(=O)N1CCc2c(ccc(Cl)c2NC(=O)Cc2cccc(C(F)(F)F)c2F)C1 [Compound 3150]		0 to 25%	
O=C(Cc1cccc(C(F)(F)F)c1F)Nc1c(Cl)ccc2c1CCN(C(=O)c1cccc3ccccc13)C2 [Compound 3185]		0 to 25%	
CC(C)(C)C(=O)N1CCc2c(ccc(Cl)c2NC(=O)Cc2ccc(C(F)(F)F)c(F)c2)C1 [Compound 3092]		≥ 76%	
O=C(Cc1ccc(C(F)(F)F)cc1)Nc1c(Cl)ccc2c1CCN(S(=O)(=O)c1ccccc1OC(F)(F)F)C2 [Compound 3034]			0 to 25%

Second part, led by results:

IC50	SMILES	inhibition at 0.3 µM [1]	inhibition at 0.1 µM (0.1 μM compound ("*" symbols), differentiated THP-1 cells, 250 uM BzATP, read-out: IL-1β% Inhib. @ 0.3 or 0.1 μM)
192 nM	COc1ccc2c(c1NC(=O)Cc1ccc(C(F)(F)F)c(F)c1)CCN(C(=O)CC1(O)CCCC(C)(C)C1)C2 (stereo not drawn) [Compound 3478, 2-(3-Fluoro-4-trifluoromethyl-phenyl)-N-{2-[2-(1-hydroxy-3,3-dimethyl-cyclohexyl)-acetyl]-6-methoxy-1,2,3,4-tetrahydro-isoquinolin-5-yl}-acetamide]		
> 1000 nM	N#CN1CCc2c(cccc2NC(=O)Cc2ccc(C(F)(F)F)c(F)c2)C1 [Compound 3053, N-(2-Cyano-1,2,3,4-tetrahydro-isoquinolin-5-yl)-2-(3-fluoro-4-trifluoromethyl-phenyl)-acetamide]	0 to 25%	
64.4 nM	Cc1ccc2c(c1NC(=O)Cc1ccc(C(F)(F)F)cc1)CCN(C(=O)[C@H]1CCCN1)C2 [Compound 3060, N-[6-Methyl-2-((R)-pyrrolidine-2-carbonyl)-1,2,3,4-tetrahydro-isoquinolin-5-yl]-2-(4-trifluoromethyl-phenyl)-acetamide]	≥ 76%	
204 nM	Cc1ccc2c(c1NC(=O)Cc1ccc(C(F)(F)F)c(F)c1)CCN(C(=O)CCC1CCCC1)C2 [Compound 3207]		
